The source made the active and inactive calls. No cut-off for these calls is given here.
Columns and labels:
Rattus norvegicus [1] = species on record: Rattus norvegicus; test: Percentage of sterilization of surviving female worm Acanthocheilonema viteae in Mastomys natalensis: Inactive; type: functional, organism-based
Rattus norvegicus [2] = test: In vivo macrofilaricidal activity against Acanthocheilonema viteae in Mastomys natalensis at a dose of 50 mg/kg for 5 days administered i.p.; type: functional; conditions: route intraperitoneal
Rattus norvegicus [3] = test: In vivo macrofilaricidal activity against Litomosoides carinii in cotton rats at a dose of 30 mg/kg for 5 days administered i.p.: Inactive; type: functional, organism-based; set-up: dose 30 mg/kg
Rattus norvegicus [4] = test: In vivo microfilaricidal activity against A. viteae in Mastomys natalensis at a dose of 50 mg/kg for 5 days administered i.p.: Inactive; type: functional, organism-based; set-up: dose 50 mg/kg
Rattus norvegicus [5] = test: In vivo microfilaricidal activity against Litomosoides carinii in cotton rats at a dose of 30 mg/kg for 5 days administered i.p.: Inactive; type: functional, organism-based; set-up: dose 30 mg/kg
Rattus norvegicus [6] = species on record: Rattus norvegicus; test: Percentage of sterilization of surviving female worm Acanthocheilonema viteae: Inactive; type: functional, organism-based
Rattus norvegicus [7] = test: In vivo macrofilaricidal activity against A. viteae in Mastomys natalensis at a dose of 50 mg/kg for 5 days administered i.p.: Inactive; type: functional, organism-based; set-up: dose 50 mg/kg
Rattus norvegicus [8] = test: In vivo macrofilaricidal activity against Litomosoides carinii in cotton rats at a dose of 30 mg/kg for 5 days administered i.p.; type: functional; conditions: route intraperitoneal
Rattus norvegicus [9] = test: In vivo macrofilaricidal activity against A. viteae in Mastomys natalensis at a dose of 350 mg/kg for 5 days administered i.p.: Inactive; type: functional, organism-based; set-up: dose 350 mg/kg
Rattus norvegicus [10] = test: In vivo macrofilaricidal activity against Litomosoides carinii in cotton rats at a dose of 6 mg/kg for 5 days administered i.p.: Inactive; type: functional, organism-based; set-up: dose 6 mg/kg
Rattus norvegicus [11] = species on record: Rattus norvegicus; test: Percentage of sterilization of surviving female worm Acanthocheilonema viteae in Mastomys natalensis; type: functional
Rattus norvegicus [12] = test: In vivo microfilaricidal activity against Litomosoides carinii in cotton rats at a dose of 30 mg/kg for 5 days administered i.p.; type: functional; conditions: route intraperitoneal

## NC(=O)C1NCCc2c1[nH]c1ccccc21 (stereo not given)
Rattus norvegicus [1]
  Activity: inactive
Rattus norvegicus [2]
  Death: 84%
Rattus norvegicus [3]
  Death: inactive
Rattus norvegicus [4]
  Death: inactive
Rattus norvegicus [5]
  Death: inactive

## COC(=O)c1nccc2c1[nH]c1ccccc12
Rattus norvegicus [6]
  Activity: inactive
Rattus norvegicus [7]
  Death: inactive
Rattus norvegicus [3]
  Death: inactive
Rattus norvegicus [5]
  Death: inactive

## COC(=O)C1NCCc2c1[nH]c1ccccc21 (stereo not given)
Rattus norvegicus [1]
  Activity: inactive
Rattus norvegicus [7]
  Death: inactive
Rattus norvegicus [8]
  Death: 81%
Rattus norvegicus [5]
  Death: inactive

## CCN(CC)C(=O)N1CCN(C)CC1.O=C(O)CC(O)(CC(=O)O)C(=O)O [DIETHYLCARBAMAZINE CITRATE]
Rattus norvegicus [1]
  Activity: inactive
Rattus norvegicus [9]
  Death: inactive
Rattus norvegicus [10]
  Death: inactive

## NC(=O)c1nccc2c1[nH]c1ccccc12
Rattus norvegicus [11]
  Activity: 100
Rattus norvegicus [2]
  Death: 50%
Rattus norvegicus [3]
  Death: inactive
Rattus norvegicus [5]
  Death: inactive

## N#Cc1[nH]ccc2c3ccccc3nc1-2
Rattus norvegicus [1]
  Activity: inactive
Rattus norvegicus [2]
  Death: 50%
Rattus norvegicus [8]
  Death: 78%
Rattus norvegicus [4]
  Death: inactive
Rattus norvegicus [12]
  Death: 59%
